According to the supplement of paper PMC10307832:

How the values were obtained:
Experiment in all cases: relative viability (nuclei count vs DMSO), 5 days (fraction); higher = more cells survive
[1] = compound: C1CNCCC1C2=CC(=NN2)C3=CC=NC=C3 + Cc1cc(Nc2cc(N3CCN(C)CC3)nc(Sc3ccc(NC(=O)C4CC4)cc3)n2)n[nH]1 [Tozasertib] (partner 0.1 µM)
Outline: (§1)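 A single step with final 0.05% Triton X-100, 1% formaldehyde and 1 ug/ml Hoechst fixed the cells and stained nuclei 5 days after treatment. Lung cancer cell lines in 1536-well plates had been treated by pin tool the day after seeding with one drug alone or a fixed anchor-drug dose plus five library-drug doses (not always all listed) in √10 steps, and nuclei were counted on 4× images. Relative viability is the ratio of nuclei in treated wells to nuclei in vehicle wells, taken as the median of duplicate plates.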

[2] = compound: C1CNCCC1C2=CC(=NN2)C3=CC=NC=C3 + O=C(c1cc(Cc2n[nH]c(=O)c3ccccc23)ccc1F)N1CCN(C(=O)C2CC2)CC1 [Olaparib] (partner 8 µM)
Outline: as §1

[3] = compound: C[C@@H](N)c1ccc(C(=O)Nc2ccnc3[nH]ccc23)cc1 + N=C(N)NC(=N)NCCc1ccccc1 [Phenformin] (partner 250 µM)
Outline: as §1

[4] = compound: C[C@@H](N)c1ccc(C(=O)Nc2ccnc3[nH]ccc23)cc1 + C[C@]1(O)C[C@@H](c2nc(-c3ccc4ccc(-c5ccccc5)nc4c3)c3c(N)nccn32)C1 [Linsitinib] (partner 1 µM)
Outline: as §1

| Cell Line | relative viability ([1]; first compound 0.08 µM) | relative viability ([1]; first compound 0.8 µM) | relative viability ([1]; first compound 2.53 µM) | relative viability ([1]; first compound 8 µM) | relative viability ([2]; first compound 0.08 µM) | relative viability ([2]; first compound 0.8 µM) | relative viability ([2]; first compound 2.53 µM) | relative viability ([2]; first compound 8 µM) | relative viability ([3]; first compound 0.04 µM) | relative viability ([3]; first compound 0.1265 µM) | relative viability ([3]; first compound 0.4 µM) | relative viability ([3]; first compound 1.265 µM) | relative viability ([3]; first compound 4 µM) | relative viability ([4]; first compound 0.04 µM) | relative viability ([4]; first compound 0.1265 µM) | relative viability ([4]; first compound 0.4 µM) | relative viability ([4]; first compound 1.265 µM) | relative viability ([4]; first compound 4 µM) |
| --- | --- | --- | --- | --- | --- | --- | --- | --- | --- | --- | --- | --- | --- | --- | --- | --- | --- | --- |
| PC-3 [JPC-3] | 0.832 | 0.914 | 0.889 | 0.853 | 1.09 | 1.24 | 1.11 | 1.15 | 0.473 | 0.495 | 0.477 | 0.474 | 0.456 | 0.963 | 1.05 | 0.978 | 1 | 0.879 |
| H3255 | 0.709 | 0.795 | 0.806 | 0.606 | 0.562 | 0.567 | 0.601 | 0.608 | 0.396 | 0.332 | 0.337 | 0.348 | 0.322 | 0.997 | 1.04 | 1.26 | 0.957 | 0.947 |
| EMC-BAC-2 | 0.28 | 0.311 | 0.319 | 0.263 | 0.346 | 0.521 | 0.476 | 0.477 | 0.41 | 0.553 | 0.469 | 0.404 | 0.409 | 0.84 | 0.846 | 0.738 | 0.827 | 0.613 |
| CAL-12T | 0.334 | 0.34 | 0.313 | 0.342 | 0.676 | 0.665 | 0.753 | 0.719 | 0.674 | 0.609 | 0.665 | 0.538 | 0.56 | 0.928 | 0.888 | 0.88 | 1.09 | 0.719 |
| NCI-H650 | 0.738 | 0.729 | 0.799 | 0.793 | 0.4 | 0.424 | 0.376 | 0.405 |  | 0.424 | 0.46 | 0.203 | 0.411 | 0.723 | 0.751 | 0.841 |  | 0.658 |
| SK-MES-1 | 0.783 | 1 | 0.981 | 0.834 | 0.553 | 0.849 | 0.714 | 0.684 | 0.63 | 0.712 | 0.658 | 0.583 | 0.571 | 1.06 | 0.996 | 0.976 | 0.768 | 0.815 |
| NCI-H1355 | 0.556 | 0.595 | 0.57 | 0.622 | 0.704 | 0.727 | 0.792 | 0.792 | 0.393 | 0.469 | 0.498 | 0.436 | 0.388 | 0.853 | 0.723 | 0.833 |  | 0.771 |
| NCI-H838 | 0.314 | 0.292 | 0.28 | 0.284 | 0.708 | 0.795 | 0.815 | 0.799 | 0.378 | 0.527 | 0.501 | 0.247 | 0.221 | 0.945 | 0.905 | 0.796 | 0.533 | 0.367 |
| LK-2 | 0.157 | 0.208 | 0.182 | 0.184 |  | 0.872 | 0.897 | 0.707 | 0.325 |  | 0.744 |  | 0.636 | 0.822 | 0.542 | 0.809 | 0.554 | 0.721 |
